From patent US20250270208A1, “BICYCLIC HETEROCYCLES AS MRGPRX2 ANTAGONISTS” (Incyte Corporation, priority 2023, published 2025)

Key:
Assay type in all cases: cell-based
MRGPRX2 [1] = target: T1, MRGPRX2 (Homo sapiens, UniProt Q96LB1); test: MRGPRX2 FLIPR calcium mobilization assay; set-up: host or cells: CHO-K1; details: CHO-K1 cells stably expressing human MRGPRX2; Ca2+ release; agonist Cortistatin-14 at EC80
T1 sequence (Q96LB1 1-330): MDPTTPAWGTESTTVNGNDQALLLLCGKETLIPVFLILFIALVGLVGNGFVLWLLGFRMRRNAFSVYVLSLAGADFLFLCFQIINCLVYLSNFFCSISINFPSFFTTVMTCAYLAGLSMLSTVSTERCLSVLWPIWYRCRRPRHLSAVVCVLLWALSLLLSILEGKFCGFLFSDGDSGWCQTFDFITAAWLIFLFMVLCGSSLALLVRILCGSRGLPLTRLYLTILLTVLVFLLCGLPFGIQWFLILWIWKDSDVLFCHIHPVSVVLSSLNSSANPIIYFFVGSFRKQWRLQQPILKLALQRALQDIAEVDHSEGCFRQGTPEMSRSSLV
Description: Chinese hamster ovary (CHO-K1) cells stably expressing human MRGPRX2 were purchased from Genescript (Piscataway, NJ). The cells were maintained in culture medium (Ham's F-12K) containing 10% (v/v) FBS, 200 μg/mL Zeocin, 100 units/mL penicillin G and 100 μg/mL streptomycin (Life Technologies, Carlsbad, CA). For the assay, the cells were harvested and resuspended with culture medium without Zeocin before plating at 8000 cells per well in 20 μL in 384-well black clear bottom cell culture plates (VWR, Radnor, PA). After 24 hour culture at 37° C. and 5% CO2, the cells were loaded with 20 μL/well of calcium dye (FLIPR Calcium 6 Assay Kit, Molecular Devices, San Jose, CA) diluted in loading buffer (1× Hank's Balanced Salt Solution (HBSS), 5 mM probenecid, 20 mM 4-(2-hydroxyethyl)-1-piperazineethanesulfonic acid (HEPES), pH 7.4, VWR, Radnor, PA) followed with 45 min incubation at 37° C. and 40 min. at r.t. in the dark. Cells were then treated with the addition of 10 uL/well test compounds with a range of increasing concentrations diluted in the assay buffer (1×HBSS, 20 mM HEPES, pH 7.4, VWR, Radnor, PA) with FLIPR Penta (Molecular Devices. San Jose, CA) and incubated for 30 min. at r.t. Ca^2+ release was measured with FLIPR Penta with 10 s basal fluorescence measurement, then 12.5 μL of 5× agonist Cortistatin-14 (Tocris, Minneapolis, MN) at final concentration corresponding to the EC80 were added followed with continued fluorescence signal monitoring for an additional 110 s. The base line adjusted (median of first 10 s base line) max value of the Relative Fluorescence Unit (RFU) was plotted against compound concentrations. Wells with no compound were served as the positive controls, and wells with high concentration of reference antagonist were used as negative controls. IC50 curves were globally fitted with 3- or 4-parameter Hill equation in a Genedata Screener (Genedata Basel, Switzerland).

MRGPRX2 [2] = target: T1, MRGPRX2; test: MRGPRX2 IP1 HTRF assay; set-up: host or cells: CHO-K1; details: CHO-K1 cells stably expressing human MRGPRX2; IP1 accumulation; agonist Cortistatin 14 1 μM
Description: This assay measures compound inhibition of myo-Inositol 1 phosphate (IP1) accumulation in CHO-K1 cells. Chinese hamster ovary (CHO-K1) cells stably expressing human MRGPRX2 were purchased from GenScript (Piscataway, NJ).
For the HTRF IP1 determination, an IP-One GqKit (Perkin Elmer Cisbio, Waltham, MA), which includes all reagents and buffers in this protocol, was used. The cells were maintained in culture medium (Ham's F-12K) containing 10% (v/v) FBS, and 200 μg/mL Zeocin. For the assay, the cells were harvested and resuspended in culture medium with 2% FBS and without Zeocin, then were passed through a 40 μm filter. Cells were added at 20000 cells in a 5 μL/well to a 384-well white small volume cell culture plate (Greiner VWR, Radnor, PA) which contained 50 nL/well of test compound serially diluted at a selected concentration range in DMSO. 5 μL/well of prepared 2× Stimulation Buffer 2 was then added to plates and was incubated at 37° C. with 5% CO2 for 1 h. 5 μL/well of agonist Cortistatin 14 (Bio-TechneR&D Systems, Minneapolis, MN) in 1× Stimulation Buffer 2, for a 1 μM final concentration, was then added to plates and incubated at 37° C. with 5% CO2 for 1 h. 6 μL/well of 1:20 diluted Detection Reagent Mix (d2 and Cryptate) was added to the plates and incubated for 1 h in the dark. Plates were read on the PHERAstar microplate reader (BMG Labtech Cary, NC) to determine the HTRF ratio of the acceptor and donor emission signals. The IP1 concentrations were calculated from a standard curve following the IP-One GQ kit instructions. Wells with DMSO only and wells with high concentration of reference antagonist were used as controls for normalization. Compound IC50 curves were globally fitted with 3- or 4-parameter Hill equation in a Genedata Screener (Genedata Basel, Switzerland).

MRGPRX2 [3] = target: T1, MRGPRX2; test: MRGPRX2 β-Arrestin assay; set-up: host or cells: PathHunter CHO-K1; details: PathHunter CHO-K1 MRGPRX2 β-Arrestin cell line; agonist Cortistatin 14 0.25 μM
Excerpt: This assay measures compound inhibition of β-Arrestin recruitment, which is part of the G protein-independent pathway that results from the ligand-activated GPCR phosphorylation by specific GPCR kinases. The PathHunter CHO-K1 MRPGRX2 β-Arrestin Cell line stably expressing ProLink tagged MRGPRX2 and Enzyme Acceptor Tagged β-Arrestin was purchased from Eurofins DiscoverX, (Fremont, CA).
The cells were maintained in culture medium from the Europhins DiscoverX Cell Culture Kit-107 which includes FBS, hygromycin B and G418. For the assay, the cells were harvested and were resuspended with Cell Plating Reagent 2 (Eurofins DiscoverX). Cells were added 10000 cells in 25 μL/well to a 384-well black cell culture plate (Greiner VWR, Radnor, PA) which contained 125 nL/well of compound at a selected serially diluted concentration range or DMSO. The plate was incubated at 37° C. with 5% CO2 for 1 h. 2 μL/well of agonist Cortistatin 14 was diluted in Protein Dilution Buffer, (Eurofins DiscoverX) for a final concentration of 0.25 μM, was added and the plate was incubated at 37° C. with 5% CO2 for 90 min. 14 μL/well of Detection Reagent Mix (PathHunter Detection Kit, Eurofins DiscoverX) was added to the plates and further incubated for 1 h in the dark. Plates were read on the PHERAstar microplate reader (BMG Labtech Cary, NC) measuring luminescence 0.1 to 1 s per well. Data was normalized using DMSO only wells and wells with high concentration of reference antagonist as controls. Compound IC50 curves were globally fitted with 3- or 4-parameter Hill equation in a Genedata Screener (Genedata Basel, Switzerland).

Structure (SMILES)	IC50 (MRGPRX2 [1]) [nM]	IC50 (MRGPRX2 [2]) [nM]	IC50 (MRGPRX2 [3]) [nM]
Cn1cnc2ccnc(N[C@H]3CC[C@@H](Nc4cc(C(F)(F)F)nc5ccccc45)CC3)c21 [Example 22, (1s,4s)-N^1-(3-Methyl-3H-imidazo[4,5-c]pyridin-4-yl)-N^4-(2-(trifluoromethyl)quinolin-4-yl)cyclohexane-1,4-diamine]	0.1 to 100	100 to 1000	0.1 to 100
FC(F)(F)c1cc(N[C@H]2CCC[C@@H](Nc3nnc4ccccn34)C2)c2cc(Cl)ccc2n1 [Example 24, (1R,3S)-N^1-([1,2,4]Triazolo[4,3-a]pyridin-3-yl)-N^3-(6-chloro-2-(trifluoromethyl)quinolin-4-yl)cyclohexane-1,3-diamine]	0.1 to 100	0.1 to 100	0.1 to 100
Fc1ccc2nc(C(F)(F)F)cc(N[C@H]3CCC[C@@H](Nc4nnc5ccccn45)C3)c2c1 [Example 33, (1R,3S)-N^1-([1,2,4]Triazolo[4,3-a]pyridin-3-yl)-N^3-(6-fluoro-2-(trifluoromethyl)quinolin-4-yl)cyclohexane-1,3-diamine]	0.1 to 100	0.1 to 100	0.1 to 100
FC(F)(F)c1cc(N[C@H]2CCC[C@@H](Nc3nnc4n3CCCC4)C2)c2cc(Cl)ccc2n1 [Example 35, (1S,3R)-N^1-(6-Chloro-2-(trifluoromethyl)quinolin-4-yl)-N^3-(5,6,7,8-tetrahydro-[1,2,4]triazolo[4,3-a]pyridin-3-yl)cyclohexane-1,3-diamine]	0.1 to 100	0.1 to 100	0.1 to 100
FC(F)(F)c1cc(N[C@H]2CCC[C@@H](Nc3nnc4n3CCOC4)C2)c2cc(Cl)ccc2n1 [Example 36, (1S,3R)-N^1-(6-Chloro-2-(trifluoromethyl)quinolin-4-yl)-N^3-(5,6-dihydro-8H-[1,2,4]triazolo[3,4-c][1,4]oxazin-3-yl)cyclohexane-1,3-diamine]	0.1 to 100	0.1 to 100	0.1 to 100

Next, values leading:

IC50 (MRGPRX2 [1]) [nM]	IC50 (MRGPRX2 [2]) [nM]	IC50 (MRGPRX2 [3]) [nM]	Structure (SMILES)
0.1 to 100	0.1 to 100	0.1 to 100	Cn1c(N[C@@H]2CCC[C@H](Nc3cc(C(F)(F)F)nc4ccc(Cl)cc34)C2)nc2cccnc21 [Example 21, (1S,3R)-N^1-(6-Chloro-2-(trifluoromethyl)quinolin-4-yl)-N^3-(3-methyl-3H-imidazo[4,5-b]pyridin-2-yl)cyclohexane-1,3-diamine]
0.1 to 100	0.1 to 100	0.1 to 100	Cn1cnc2ccnc(N[C@H]3CC[C@@H](Nc4cc(C(F)(F)F)nc5ccc(F)cc45)CC3)c21 [Example 23, (1s,4s)-N^1-(6-Fluoro-2-(trifluoromethyl)quinolin-4-yl)-N^4-(3-methyl-3H-imidazo[4,5-c]pyridin-4-yl)cyclohexane-1,4-diamine]
0.1 to 100	0.1 to 100	0.1 to 100	Fc1ccc2nc(C(F)(F)F)cc(N[C@H]3CCC[C@@H](Nc4nccc5ncccc45)C3)c2c1 [Example 25, (1S,3R)-N^1-(6-Fluoro-2-(trifluoromethyl)quinolin-4-yl)-N^3-(1,6-naphthyridin-5-yl)cyclohexane-1,3-diamine]
0.1 to 100	0.1 to 100	0.1 to 100	FC(F)(F)c1cc(N[C@H]2CCC[C@@H](Nc3ncnc4ncccc34)C2)c2cc(Cl)ccc2n1 [Example 26, (1S,3R)-N^1-(6-Chloro-2-(trifluoromethyl)quinolin-4-yl)-N^3-(pyrido[2,3-d]pyrimidin-4-yl)cyclohexane-1,3-diamine]
